Data from patent US20240174992A1, “SPLIT MODIFIED DEHALOGENASE VARIANTS” (Promega Corporation, priority 2022, published 2024).

Experiments:
HeLa cells [1] = experiment: Live cell labeling kinetics of split HaloTag fragments fused to BRD4 and Histone H3, time-lapse imaging; format: cell-based; conditions: 100 nM JF646, BRD4-HaloTag[3-19] and H3.3-HaloTag[22-297](M2F)-EGFP
Protocol: FIG. 136. Timepoint imaging of complemented BRD4:Histone H3 complexes in live cells after addition of JF646 HaloTag ligand. […] Cells were immediately imaged after the ligand, 100 nM JF646, addition every 15 minutes for 1.5 hour. Imaging data were collected in the Far-red channel (Ex. 637 nm, top panel) and the green channel (Ex. 488 nm, bottom panel).
FIG. 137. Quantitation of live cell labeling kinetics of split HaloTag fragments fused to BRD4 and Histone H3 using time-lapse imaging. Cells were immediately imaged after the ligand addition every 10 minutes for 70 minutes. A Z-stack image was obtained at all time points to ensure all cells were captured in focus. The most focused Z levels were merged into one, and the intensity of all cells (6 total objects) was measured and averaged at all time points. The average of all cells' intensities present in the captured field of view were tracked in the far-red channel and the green channel over this period. […]
To measure the labeling rate, cells were immediately imaged after ligand addition every 10 minutes for 70 minutes (FIG. 137). […] The most focused Z levels were merged into one, and the intensity of all cells (6 total objects) was measured and averaged at all time points. […]

[2] = Complementation of N-terminal split HaloTag constructs in E. coli lysates, Janelia Fluor ligand fluorescence; format: biochemical; conditions: FKBP fusion against HT(23-297)-FRB, 500 nM Rapamycin, JF646
Protocol: FIG. 21A-B. Comparison of complementation activity of N-terminal split HaloTag constructs. Each HaloTag fragment was expressed separately in E. coli and then combined after lysis. The smaller N-terminal HaloTag fragments as FKBP fusions were tested against the larger fragments of FIG. 21A HT(23-297)-FRB or FIG. 21B HT(22-297)-FRB. To each reaction, 500 nM Rapamycin was added and incubated at room temperature for 2.5 hours prior to addition of 50 nM JF646 ligand and measurement of fluorescence at the indicated timepoint.
FIG. 22. Comparison of truncations of N-terminal split HaloTag constructs. Each HaloTag fragment was expressed separately in E. coli and then combined after lysis. […] To each reaction, 500 nM Rapamycin was added and incubated at room temperature for 2 hours prior to addition of 50 nM JF646 ligand and measurement of fluorescence at the indicated timepoint.
FIG. 25A-B. Mutations in N-terminal split HaloTag fragments improve fluorescence intensity and fold response. […] To each reaction, 500 nM Rapamycin was added and incubated at room temperature for 2 hours prior to addition of 50 nM JF646 ligand and measurement of fluorescence at the indicated timepoint. FIG. 25A Fluorescence intensity is shown for +Rapamycin condition to show the overall system brightness relative to FIG. 25B Fold response following Rapamycin addition. […]

HeLa cells [3] = experiment: Split HaloTag FRB/FKBP plate-based fluorescent assay in live HeLa cells; format: cell-based; conditions: for performance of small HaloTag fragment: live HeLa cells, 500 nM Rapamycin, 50 nM JF646
Protocol: FIG. 27A-B. Activity of split HaloTag combinations in live mammalian cells. HeLa cells transiently transfected with plasmids expressing the large HaloTag fragments fused to FRB and small HaloTag fragments fused to FKBP were incubated for 2 hours with 500 nM Rapamycin, followed by labeling with 50 nM JF646 HaloTag ligand prior to detection of fluorescence at indicated timepoints. FIG. 27A Fluorescence intensity of JF646 HaloTag ligand in live cell assays over time comparing cells treated or untreated with Rapamycin. FIG. 27B Fold response of each assay condition was calculated as the ratio of fluorescence signal for +Rapamycin/−Rapamycin treated cells.
(§1) FIG. 90. The activity of different small HaloTag fragments in live mammalian cells. HeLa cells transiently transfected with plasmids expressing the large HaloTag fragment fused to FRB and small HaloTag fragments fused to FKBP were incubated for 2 hours with 500 nM Rapamycin, followed by labeling with 50 nM JF646 HaloTag ligand prior to detection of fluorescence activity at indicated time points. Fluorescence intensity of JF646 HaloTag ligand in live cell assays over time comparing cells treated or untreated with Rapamycin.
(§2) FIG. 91. Fold response of different small HaloTag fragments in live mammalian cells. HeLa cells transiently transfected with plasmids expressing the large HaloTag fragment fused to FRB and small HaloTag fragments fused to FKBP were incubated for 2 hours with 500 nM Rapamycin, followed by labeling with 50 nM JF646 HaloTag ligand prior to detection of fluorescence activity at indicated time points. The fold response of each assay condition was calculated as the ratio of fluorescence signal for +Rapamycin/−Rapamycin treated cells.
as §1, with “93. Activity comparison” for “90. The activity”, “HaloTag[22-297] variants in a protein complementation assay” for “different small HaloTag fragments”
as §2, with “94. […]” for “91. Fold response of different small HaloTag fragments in live mammalian cells.”, “+Rapamycin/− Rapamycin” for “+Rapamycin/−Rapamycin”, “cells. […]” for “cells.”

[4] = target: T1, Calmodulin:M13 interaction (Homo sapiens, UniProt P0DP23); experiment: Calmodulin:M13 interaction with split HaloTag, plate assay in live HeLa cells; format: cell-based
T1 construct: HaloTag[3-19]; expressed in transfected cells; host or cells: HeLa cells
Protocol: FIG. 140. Use of split HaloTag in detecting the interaction between Calmodulin and M13 peptide induced by the Calcium ions in live mammalian cells. […] The fluorescence activity was measured at indicated time points. For each construct, four technical replicates were tested. The bar for each construct is the mean of the four replicates, and the error bar represents the standard deviations.
FIG. 141. The fold response of split HaloTag in detecting the interaction between Calmodulin and M13 peptide induced by the Calcium ions in live mammalian cells. The fold response of each assay condition was calculated as the ratio of fluorescence signal for +Calcium chloride divided by −Calcium chloride treated cells (B). For each construct, four technical replicates have been tested. The bar for each construct is the mean of the four replicates, and the error bar represents the standard deviations.

[5] = target: T1, Calmodulin:M13 interaction; experiment: Calmodulin:M13 interaction with split HaloTag, live cell imaging in HeLa cells; format: cell-based
Protocol: FIG. 142. Live cell imaging of split HaloTag function in detecting the interaction between Calmodulin protein with the M13 peptide induced upon the addition of Ca ions in live mammalian cells. […] Prior to imaging by confocal microscopy, cells were labeled with 100 nM JF646 HaloTag ligand for 30 minutes at 37° C. The imaging data were collected in the far-red channel (Ex. 637 nm) and the green channel (Ex. 488 nm).
FIG. 143. Background measurement of HaloTag[22-297](M2F) fused to M13 peptide in live mammalian cells at lower laser intensity To measure the background originating from labeling the HaloTag [22-297](M2F) fragment, cells were transfected with just the M13-HaloTag[22-297](M2F)-EGFP plasmid and imaged using the same microscope settings. The Imaging data were collected in the far-red channel (Ex. 637 nm) and the green channel (Ex. 488 nm).
FIG. 144. Quantitation of live cell imaging of split HaloTag function in detecting the Calmodulin and M13 peptide interaction in live mammalian cells. Comparison of the fluorescent intensity of all imaged cells across several fields of view in the presence or absence of Calcium chloride (6 mM) conditions compared against the background fluorescent intensity of the labeled non-complemented HaloTag[22-297](M2F) fragment alone. Each dot represents the intensity of an imaged cell. CellProfiler software is used for this analysis.

C[Si]1(C)c2cc(N3CCC3)ccc2C2(OC(=O)c3ccc(C(=O)NCCOCCOCCCCCCCl)cc32)c2ccc(N3CCC3)cc21 [JF646]
time for far-red channel signal to reach its maximum (HeLa cells [1]): about 40 minutes

HT(8-19): truncated small N-terminal HaloTag fragment, residues 8-19, FKBP fusion
complementation activity of truncated small fragment [2]: Complementation activity was demonstrated

HaloTag[1-30]: small HaloTag fragment, residues 1-30, FKBP fusion
performance of small HaloTag fragment (HeLa cells [3]): best SmHT in this assay | background complementation (HeLa cells [3]; no Rapamycin): higher background (no Rapamycin) complementation

HaloTag[3-19]: small HaloTag fragment, residues 3-19 of the HALOTAG sequence; used as fusion or synthetic peptide (EIGTGFPFDPHYVEVLG)
performance of small HaloTag fragment (HeLa cells [3]): good fluorescence intensities and high fold responses

HT(4-19): small HaloTag fragment, residues 4-19, FKBP fusion
performance of small HaloTag fragment (HeLa cells [3]): good fluorescence intensities and high fold responses

[Ca+2].[Cl-].[Cl-] [calcium, Calcium chloride]
change in fluorescence of split HaloTag fused to Calmodulin and M13 peptide [4]: modest, calcium-dependent increase in fluorescence | change in fluorescence from split HaloTag complementation ([5]; 6 mM Calcium chloride, microscopy): significant increase in fluorescence | increase in median fluorescence ([5]; across all cell images, Calcium chloride 6 mM): 7 ×
